Experimental findings from ChEMBL document CHEMBL5346896, “Development of indolealkylamine derivatives as potential multi-target agents for COVID-19 treatment” (Eur J Med Chem, 2023) are described below.

The target of data set [1] is Spike glycoprotein/Angiotensin-converting enzyme 2 (Severe acute respiratory syndrome coronavirus 2) (UniProt Q9BYF1+P0DTC2). Put plainly: Inhibition of d2-labelled SARS-CoV-2 spike protein RBD-terbium labelled SNAP tagged human ACE2 interaction transfected in HEK293 cells at 100 uM preincubated with cells for 1 hrs followed by RBD-d2 addition and measured after 2 hrs by TR-FRET assay relative to control. The class given is cell-based. The following applies: time 3.0 hrs. (Time-resolved FRET reads energy transfer from a long-lived donor to a nearby acceptor.)

Data set [2] concerns the target T1, Melatonin receptor type 1B (Homo sapiens, UniProt P49286).
T1 sequence (P49286 whole entry): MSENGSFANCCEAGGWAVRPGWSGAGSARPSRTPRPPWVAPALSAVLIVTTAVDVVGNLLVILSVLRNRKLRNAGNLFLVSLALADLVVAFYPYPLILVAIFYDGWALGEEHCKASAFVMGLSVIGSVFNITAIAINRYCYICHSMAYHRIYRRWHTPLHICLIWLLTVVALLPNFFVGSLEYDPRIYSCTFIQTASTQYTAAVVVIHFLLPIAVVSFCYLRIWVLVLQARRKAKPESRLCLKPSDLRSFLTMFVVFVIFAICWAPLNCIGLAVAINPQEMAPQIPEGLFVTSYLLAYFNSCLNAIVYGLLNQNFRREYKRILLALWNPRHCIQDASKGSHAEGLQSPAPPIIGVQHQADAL
The experiment in a line: Displacement of 2-[125I]iodomelatonin from human melatonin MT2 receptor stably expressed in human HEK293 cell membrane assessed as inhibition constant incubated for 120 mins by rapid filtration based competition binding assay. The format is cell membranes.

The target of data set [3] is Angiotensin-converting enzyme 2 (Homo sapiens) (UniProt Q9BYF1). Put plainly: Inhibition of recombinant ACE2 (unknown origin) exopeptidase activity using fluorogenic substrate at 0.5 to 10 uM incubated for 1 hrs by fluorescence based analysis. The following applies: dose 0.5-10 µM.
For data set [4], the target named is T2, Melatonin receptor type 1A (Homo sapiens, UniProt P48039). The experiment in a line: Partial agonist activity at human melatonin MT1 receptor expressed in HEK293 cells co-transfected with Galphai9 chimera construct assessed as stimulation of inositol phosphate production by HTRF based assay. The class given is functional, cell-based.
Data set [5] addresses T2, Melatonin receptor type 1A. The experiment in a line: Displacement of 2-[125I]iodomelatonin from human melatonin MT1 receptor stably expressed in HEK293 cell membrane assessed as inhibition constant incubated for 120 mins by rapid filtration based competition binding assay. The class given is cell membranes.
Data set [6] addresses T1, Melatonin receptor type 1B. The experiment in a line: Partial agonist activity at human melatonin MT2 receptor expressed in HEK293 cells co-transfected with Galphai9 chimera construct assessed as stimulation of inositol phosphate production by HTRF based assay. The class given is functional, cell-based.
The species named for data set [7] is Homo sapiens. The experiment in a line: Selectivity ratio of pKi for displacement of 2-[125I]iodomelatonin from human melatonin MT1 receptor stably expressed in human HEK293 cell membrane to pKi for displacement of 2-[125I]iodomelatonin from human melatonin MT2 receptor stably expressed in human HEK293 cell membrane.
Data set [8] has as its target T2, Melatonin receptor type 1A. The experiment in a line: Inverse agonist activity at human melatonin MT1 receptor expressed in HEK293 cells co-transfected with Galphai9 chimera construct assessed as stimulation of inositol phosphate production by HTRF based assay. The format is functional, cell-based.
Data set [9] is filed under the species Homo sapiens. Put plainly: Inhibition of CAMKII (unknown origin) using syntide-2 as substrate assessed as maximum efficacy at 50 uM incubated for 30 mins by spectrophotometric analysis relative to control.
Data set [10] concerns the target Angiotensin-converting enzyme 2 (Homo sapiens) (UniProt Q9BYF1). The experiment in a line: Inhibition of recombinant ACE2 (unknown origin) exopeptidase activity using fluorogenic substrate at 0.5 to 10 uM incubated for 1 hrs by fluorescence based analysis relative to control. The note with it: dose 0.5-10 µM.
The nature of data set [11]: Inhibition of CAMKII (unknown origin) using syntide-2 as substrate assessed as maximum efficacy incubated for 30 mins by spectrophotometric analysis. Further details: species or system Homo sapiens.
In data set [12] the target is Replicase polyprotein 1ab (Severe acute respiratory syndrome coronavirus 2) (UniProt P0DTD1). The experiment in a line: Inhibition of SARS-CoV-2 main protease transfected in HEK293T cells co-transfected with gain of signal Src and Tat-Luc reporter construct at 1 uM measured 48 hrs post transfection by luciferase based analysis relative to control. The format is cell-based.

In data set [13] the test system is SARS-CoV-2. Put plainly: Antiviral activity against SARS-CoV-2 infected in African green monkey Vero cells assessed as inhibition of viral replication at 1 uM preincubated with cells for 1 hrs followed by viral infection by FISH-flow quantification analysis. The class given is functional, organism-based. The note with it: Severe acute respiratory syndrome coronavirus 2.

For a further data set, the system named is HEK-293T. The experiment in a line: Cytotoxicity against HEK293T cells expressing human ACE2 assessed as effect on cell viability. The format is toxicity, cell-based.
In data set [14] the test system is Vero. Put plainly: Cytotoxicity against African green monkey Vero cells assessed as effect on cell viability. The format is toxicity, cell-based. The following applies: chlorocebus sabaeus.
Data set [15] deals with SARS-CoV-2. Put plainly: Antiviral activity against SARS-CoV-2 infected in African green monkey Vero cells assessed as inhibition of viral replication at 10 uM preincubated with cells for 1 hrs followed by viral infection by FISH-flow quantification analysis. The format is functional, organism-based. The note with it: Severe acute respiratory syndrome coronavirus 2.
Data set [16] relates to Vero. The experiment in a line: Cytotoxicity against African green monkey Vero cells infected with SARS-CoV-2 assessed as effect on cell viability. The following applies: chlorocebus sabaeus. The class given is toxicity, cell-based.
Data set [17] concerns SARS-CoV-2. Put plainly: Antiviral activity against SARS-CoV-2 assessed as inhibition of viral replication. The format is functional, organism-based. The note with it: Severe acute respiratory syndrome coronavirus 2.

Activity calls are given as the source filed them. No cut-off for these calls is given here. Some results are limits rather than exact numbers.

Chain of Angiotensin-converting enzyme 2 (Homo sapiens) (Q9BYF1 18-805 limits assumed): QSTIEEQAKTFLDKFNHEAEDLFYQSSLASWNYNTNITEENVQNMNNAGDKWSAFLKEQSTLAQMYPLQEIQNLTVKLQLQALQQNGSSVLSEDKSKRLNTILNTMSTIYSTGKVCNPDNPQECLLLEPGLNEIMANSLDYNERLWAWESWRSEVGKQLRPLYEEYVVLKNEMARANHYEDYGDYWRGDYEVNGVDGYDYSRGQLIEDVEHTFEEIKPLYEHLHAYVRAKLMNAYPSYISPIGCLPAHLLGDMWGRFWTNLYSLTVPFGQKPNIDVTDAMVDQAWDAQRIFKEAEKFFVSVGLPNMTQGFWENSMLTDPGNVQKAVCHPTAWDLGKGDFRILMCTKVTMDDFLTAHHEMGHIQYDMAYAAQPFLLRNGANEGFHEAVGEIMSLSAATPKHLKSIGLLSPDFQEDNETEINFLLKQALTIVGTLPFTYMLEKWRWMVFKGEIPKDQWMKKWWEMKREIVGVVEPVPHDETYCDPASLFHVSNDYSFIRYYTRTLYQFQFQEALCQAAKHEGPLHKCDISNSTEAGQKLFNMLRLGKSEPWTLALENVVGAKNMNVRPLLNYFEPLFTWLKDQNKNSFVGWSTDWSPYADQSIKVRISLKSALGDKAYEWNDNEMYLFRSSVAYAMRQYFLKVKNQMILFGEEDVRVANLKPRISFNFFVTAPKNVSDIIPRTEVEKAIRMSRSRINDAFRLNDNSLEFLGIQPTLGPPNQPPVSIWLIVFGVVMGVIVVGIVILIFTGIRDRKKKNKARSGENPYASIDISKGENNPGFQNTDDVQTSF
T2 sequence (P48039 whole entry): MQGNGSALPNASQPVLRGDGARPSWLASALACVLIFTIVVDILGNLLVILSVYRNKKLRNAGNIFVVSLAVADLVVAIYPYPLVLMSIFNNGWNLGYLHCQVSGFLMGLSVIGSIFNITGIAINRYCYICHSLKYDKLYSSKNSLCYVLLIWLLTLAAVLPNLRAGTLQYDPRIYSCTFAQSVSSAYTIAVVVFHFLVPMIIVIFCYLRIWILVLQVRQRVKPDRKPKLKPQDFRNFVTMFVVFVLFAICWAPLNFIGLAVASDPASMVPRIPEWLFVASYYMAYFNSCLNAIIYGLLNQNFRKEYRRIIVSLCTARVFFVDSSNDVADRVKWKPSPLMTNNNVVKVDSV

Usually inhibition stands for how much of the control response was suppressed. By Ki is commonly meant the equilibrium dissociation constant of an inhibitor or competing ligand from its target. Broadly, the EC50 is the concentration giving half of the maximal effect. `COc1ccc2[nH]c(C(O)c3ccccc3)c(CCNC(C)=O)c2c1` (centres undefined) had an inhibition in data set [1] of 20%. The Ki in data set [2] is 0.977 µM; in data set [5], 1.26 µM. Moreover, in [3], the inhibition result is “inactive”. Also, the EC50 in data set [4] is 0.525 µM; in data set [6] it was 0.224 µM. Also, in the data set filed under Homo sapiens [7], the Ratio pKi worked out at 0.98.
In data set [1], `COC(=O)NCCc1c(C(O)c2ccc(OC)cc2)[nH]c2ccc(OC)cc12` (centres undefined) registered an inhibition of 20%. Besides, the Ki in data set [2] was 66.1 µM; in data set [5], 110 µM. Also, in data set [3], the inhibition result was “inactive”. For the same molecule, the Ratio pKi in the data set listed under Homo sapiens [7] worked out at 0.94.
Consider `COC(=O)NCCc1c(C(O)c2ccc(F)cc2)[nH]c2ccc(OC)cc12` (centres undefined), for which the Ki in [2] is 0.741 µM; in data set [5], 1.82 µM. The inhibition result in data set [3] is “inactive”. Also, the EC50 was 3.16 µM in [4] and 0.257 µM in [6]. For the same molecule, the Ratio pKi in the data set filed under Homo sapiens [7] came to 0.94.
For the molecule `O=C(NCCc1c(C(O)c2ccccc2)[nH]c2ccccc12)C(F)(F)F` (centres undefined), in [8], the EC50 is below 10 µM. Further, the Ki is 1.15 µM in data set [2] and 2.51 µM in data set [5]. In addition, the Ratio pKi in the data set listed under Homo sapiens [7] was 0.94.
Take `CN1CC(=O)NC(CCc2c(C(O)c3ccccc3N)[nH]c3ccccc23)C1=O` (centres undefined): the Ki in data set [2] was 17 µM; in [5] it was 41.7 µM. Besides, the Ratio pKi in the data set filed under Homo sapiens [7] is 0.92.
With `CCC(=O)NCC[C@@H]1CCc2ccc3c(c21)CCO3`, the Imax in the data set filed under Homo sapiens [9] was 20%.
In the case of `CC(=O)NCC(=O)N[C@@H](CC(=O)O)C(=O)N[C@@H](Cc1ccc(O)cc1)C(=O)N[C@@H](CO)C(=O)N[C@@H](Cc1cnc[nH]1)C(=O)N[C@H]1CSSC[C@@H](C(=O)N[C@H](C(=O)N[C@@H](Cc2ccc(O)cc2)C(=O)N2CCC[C@H]2C(=O)N[C@@H](CC(=O)O)C(=O)N2CCC[C@H]2C(=O)N[C@@H](CCC(=O)O)C(=O)NCC(=O)NCC(=O)NCC(N)=O)[C@@H](C)O)NC(=O)[C@H](CCCCN)NC(=O)[C@H](Cc2c[nH]c3ccccc23)NC(=O)[C@H](Cc2c[nH]c3ccccc23)NC(=O)[C@@H]2CCCN2C(=O)[C@H](Cc2ccc(O)cc2)NC(=O)[C@H](Cc2ccc(O)cc2)NC(=O)[C@H](CCCNC(=N)N)NC(=O)[C@H](CC(C)C)NC(=O)[C@@H]2CCCN2C(=O)[C@H](CO)NC1=O`, in data set [10], the inhibition was 100%.
Consider `CC(=O)NCCc1c(C(O)c2ccccc2)[nH]c2ccccc12` (centres undefined), for which the Ki in data set [2] is 1 µM; in data set [5], 2.75 µM. The Ratio pKi in the data set filed under Homo sapiens [7] was determined as 0.93.
`COC(=O)NCCc1c(C(O)c2ccc(OC)cc2F)[nH]c2ccc(OC)cc12` (centres undefined): the Ki in data set [2] is 4.9 µM; in data set [5], 2.04 µM. Also, the inhibition entry in [3] was “inactive”. For the same molecule, the EC50 in data set [4] and in [6] was below 10 µM in each case. Further, the Ratio pKi in the data set filed under Homo sapiens [7] stood at 1.07.
As to `COc1ccc2[nH]c(C(O)c3ccc(Cl)cc3)c(CCNC(C)=O)c2c1` (centres undefined), the results for the inhibition in data set [1] and in [12] were 35% and below 20%, respectively. Moreover, in data set [11], the concentration for a half-maximal effect (EC50) was around 25 µM. Also, the Imax in the data set filed under Homo sapiens [9] worked out at 40%. For the same molecule, the values for the Ki in data set [2] and in data set [5] were 0.0513 µM and 0.513 µM, respectively. The outcome with SARS-CoV-2 [13] and in the data set on SARS-CoV-2 [15] was inactive. Besides, in data set [3], the inhibition result is “inactive”. Also, the Activity result with HEK-293T, in the data set on Vero [14] and in the data set with Vero [16] was “Non-Toxic” throughout.
Take `COC(=O)NCCc1c(C(O)c2ccc(Cl)cc2)[nH]c2ccccc12` (centres undefined): the Ki in data set [2] was 5.25 µM; in data set [5], 25.1 µM. For the same molecule, the Ratio pKi in the data set listed under Homo sapiens [7] is 0.87.
`COc1ccc2cccc(CCNC(C)=O)c2c1`: the Imax in the data set listed under Homo sapiens [9] is 20%.
Consider `CC(=O)NCCc1c(C(O)c2ccc(Cl)cc2)[nH]c2ccccc12` (centres undefined), for which, in [1], the inhibition is 20%. Besides, the Ki was 4.37 µM in [2] and 4.47 µM in data set [5]. The inhibition entry in data set [3] was “inactive”. Also, the Ratio pKi in the data set listed under Homo sapiens [7] was determined as 0.99.
On to `COc1ccc(C(O)c2[nH]c3ccc(OC)cc3c2CCNC(C)=O)c(F)c1` (centres undefined), for which the Ki in data set [2] was 0.295 µM; in data set [5], 6.76 µM. The inhibition result in data set [3] is “inactive”. Also, the Ratio pKi in the data set listed under Homo sapiens [7] turned out to be 0.79.
As a reminder, the IC50 is the point on the concentration scale where inhibition reaches its midpoint. Regarding `O=C(Oc1cncc(Cl)c1)c1cccc2[nH]ccc12`, the IC50 in the data set with SARS-CoV-2 [17] was determined as 2.8 µM.
Turning to `COc1ccc2[nH]c(C(O)c3ccc(F)cc3)c(CCNC(C)=O)c2c1` (centres undefined), the inhibition in data set [1] is 20%. Also, the EC50 was around 25 µM in data set [11], below 10 µM in data set [4] and below 10 µM in data set [6]. For the same molecule, the Imax in the data set listed under Homo sapiens [9] was 40%. Further, the Ki in [2] was 4.57 µM; in data set [5] it was 5.37 µM. Further, in data set [3], the inhibition entry was “inactive”. For the same molecule, in the data set listed under Homo sapiens [7], the Ratio pKi came to 0.98.
Consider `COc1ccc2[nH]cc(CCNC(C)=O)c2c1`, for which the Imax in the data set listed under Homo sapiens [9] turned out to be 20%.
In [1], `COc1ccc(C(O)c2[nH]c3ccc(OC)cc3c2CCNC(C)=O)cc1` (centres undefined) gave an inhibition of 20%. Further, the Ki in data set [2] was 0.427 µM; in [5], 7.59 µM. In addition, the inhibition result in data set [3] was “inactive”. The Ratio pKi in the data set filed under Homo sapiens [7] is 0.8.
Regarding `COC(=O)NCCc1c(C(O)c2ccccc2)[nH]c2ccc(OC)cc12` (centres undefined), the results for the inhibition in data set [1] and in data set [12] were 20% and above 70%, respectively. Besides, the EC50 in [11] is around 25 µM; in [4] it was below 10 µM; in data set [6] it was below 10 µM. For the same molecule, the Imax in the data set filed under Homo sapiens [9] was found to be 40%. In addition, the values for the Ki in [2] and in [5] were 0.191 µM and 0.891 µM, respectively. The outcome with SARS-CoV-2 [13] was inactive. In addition, the inhibition entry in data set [3] is “inactive”. Also, the Activity result in the data set on HEK-293T, in the data set on Vero [14] and with Vero [16] was “Non-Toxic” in each case. Also, in the data set on SARS-CoV-2 [15], the result was Active.
`COC(=O)NCCc1c(C(O)c2ccccc2)[nH]c2ccccc12` (centres undefined): the figures for the inhibitory constant (Ki) in data set [2] and in data set [5] were 2 µM and 22.9 µM, respectively. In addition, the Ratio pKi in the data set filed under Homo sapiens [7] is 0.81.
